Measured values taken from patent US9856254B2, “Alkoxy substituted imidazoquinolines” (3M INNOVATIVE PROPERTIES COMPANY, priority 2003, dated 2018).
“And” between values parts separate entries of the source, which are not always exact repeats. Identical values can stand only once. Counter-ions that a name gives are not always drawn.

Compared with `Cc1nc2c(N)nc3cc(OCCC4CCN(C(=O)NC5CCCCC5)CC4)ccc3c2n1CC(C)C` [Example 403, 4-{2-[(4-Amino-1-isobutyl-2-methyl-1H-imidazo[4,5-c]quinolin-7-yl)oxy]ethyl}-N-cyclohexylpiperidine-1-carboxamide], `CCCCc1nc2c(N)nc3ccc(OCCC4CCN(C(=O)C5CCCC5)CC4)cc3c2n1C` [Example 40, 2-Butyl-8-{2-[1-(cyclopentylcarbonyl)piperidin-4-yl]ethoxy}-1-methyl-1H-imidazo[4,5-c]quinolin-4-amine] is lower in melting point: 213.7 to 215.7 °C for the first, 147.2 to 150.1 °C for the second.

First: CCOCc1nc2c(N)nc3cc(OCCCCCCNC(C)=O)ccc3c2n1CC(C)(C)NS(C)(=O)=O [Example 46, N-(6-{[4-Amino-2-ethoxymethyl-1-(2-methanesulfonylamino-2-methylpropyl)-1H-imidazo[4,5-c]quinolin-7-yl]oxy}hexyl)acetamide]
Second: CCCn1c(COCC)nc2c(N)nc3ccc(OCCCCCCNS(C)(=O)=O)cc3c21 [Example 409, N-(6-{[4-Amino-2-(ethoxymethyl)-1-propyl-1H-imidazo[4,5-c]quinolin-8-yl]oxy}hexyl)methanesulfonamide]
The melting point of the first is higher: 169 to 171 °C for the first, 164 to 167 °C for the second.

Compared with `CCCc1nc2c(N)nc3cc(OCCCNC(=O)OC(C)(C)C)ccc3c2n1CC(C)C` [Example 7, tert-Butyl 3-{[4-amino-1-(2-methylpropyl)-2-propyl-1H-imidazo[4,5-c]quinolin-7-yl]oxy}propylcarbamate], `CCCc1nc2c(N)nc3cc(OCCCNC(=O)C(C)C)ccc3c2n1CC(C)C` [Example 15, N-{3-[4-Amino-1-(2-methylpropyl)-2-propyl-1H-imidazo[4,5-c]quinolin-7-yloxy]propyl}-2-methylpropanamide] is higher in melting point: 162.5 to 164 °C for the first, 179 to 181 °C for the second.

Compared with `CCCc1nc2c(N)nc3cc(OCCCN)ccc3c2n1CC(C)C` [Example 8, 7-(3-Aminopropoxy)-1-(2-methylpropyl)-2-propyl-1H-imidazo[4,5-c]quinolin-4-amine], `CCCc1nc2c(N)nc3cc(OCC(=O)c4ccccc4)ccc3c2n1CC(C)C` [Example 1, 2-(4-Amino-1-(2-methylpropyl)-2-propyl-1H-imidazo[4,5-c]quinolin-7-yloxy)-1-phenylethanone] is higher in melting point: 173 to 174 °C for the first, 178 to 180 °C for the second.

First: CCCn1c(COCC)nc2c(N)nc3ccc(OCCN)cc3c21 [Example 2, 8-(2-Aminoethoxy)-2-ethoxymethyl-1-propyl-1H-imidazo[4,5-c]quinolin-4-amine]
Second: CCCn1c(COCC)nc2c(N)nc3ccc(OCCNC(=O)N4CCOCC4)cc3c21 (as salt: hydrochloride) [Example 4, N-(2-{[4-Amino-2-(ethoxymethyl)-1-propyl-1H-imidazo[4,5-c]quinolin-8-yl]oxy}ethyl)morpholine-4-carboxamide]
The melting point of the first is lower: 157 to 159 °C for the first, 200 to 202 °C for the second.

First: CCCn1c(COCC)nc2c(N)nc3cc(OC4CCN(C(=O)OC(C)(C)C)CC4)ccc3c21 [Example 415, tert-Butyl 4-{[4-amino-2-(ethoxymethyl)-1-propyl-1H-imidazo[4,5-c]quinolin-7-yl]oxy}piperidine-1-carboxylate]
Second: CCCn1c(COCC)nc2c(N)nc3cc(OC4CCN(C(=O)NC(C)C)CC4)ccc3c21 [Example 417, 4-{[4-Amino-2-(ethoxymethyl)-1-propyl-1H-imidazo[4,5-c]quinolin-7-yl]oxy}-N-isopropylpiperidine-1-carboxamide]
The melting point of the first is higher: 194 to 195 °C for the first, 163 to 164.5 °C for the second.

First: CCCCc1nc2c(N)nc3ccc(OCCC4CCNCC4)cc3c2n1C [Example 38, 2-Butyl-1-methyl-8-(2-piperidin-4-ylethoxy)-1H-imidazo[4,5-c]quinolin-4-amine]
Second: CCCCc1nc2c(N)nc3ccc(OCCC4CCN(C(=O)OC(C)(C)C)CC4)cc3c2n1C [Example 37, tert-Butyl 4-[2-(4-amino-2-butyl-1-methyl-1H-imidazo[4,5-c]quinolin-8-yloxy)ethyl]piperidine-1-carboxylate]
The melting point of the first is higher: 210 to 212 °C for the first, 171.1 to 173.2 °C for the second.

First: CCCn1c(COC)nc2c(N)nc3ccc(OCC(=O)N4CCSCC4)cc3c21 [Example 556, 2-(Methoxymethyl)-8-(2-oxo-2-thiomorpholin-4-ylethoxy)-1-propyl-1H-imidazo[4,5-c]quinolin-4-amine]
Second: CCCn1c(COC)nc2c(N)nc3ccc(OCCCN4CCOCC4)cc3c21 [Example 554, 2-Methoxymethyl-8-(3-morpholin-4-ylpropoxy)-1-propyl-1H-imidazo[4,5-c]quinolin-4-amine]
The melting point of the first is higher: 214 to 216 °C for the first, 193 to 196 °C for the second.

Compared with `CCCCc1nc2c(N)nc3ccc(OCC(=O)N(C)Cc4ccccc4)cc3c2n1C` [Example 34, 2-[(4-Amino-2-butyl-1-methyl-1H-imidazo[4,5-c]quinolin-8-yl)oxy]-N-benzyl-N-methylacetamide], `CCCCc1nc2c(N)nc3ccc(OCC(=O)N(CC)CC)cc3c2n1C` [Example 35, 2-[(4-Amino-2-butyl-1-methyl-1H-imidazo[4,5-c]quinolin-8-yl)oxy]-N,N-diethylacetamide] is higher in melting point: 167.4 to 168.8 °C for the first, 185.9 to 188.1 °C for the second.

Compared with `CCCn1c(COCC)nc2c(N)nc3ccc(OCCCCCCNC(=O)NC(C)C)cc3c21` [Example 408, N-(6-{[4-Amino-2-(ethoxymethyl)-1-propyl-1H-imidazo[4,5-c]quinolin-8-yl]oxy}hexyl)-N′-isopropylurea], `CCc1nc2c(N)nc3cc(OCCNC(=O)NC(C)C)ccc3c2n1CC1CCOCC1` [Example 651, N-(2-{[4-Amino-2-ethyl-1-(tetrahydro-2H-pyran-4-ylmethyl)-1H-imidazo[4,5-c]quinolin-7-yl]oxy}ethyl)-N′-isopropylurea] is higher in melting point: 167 to 169 °C for the first, 223 to 225 °C for the second.

Work on `CCc1nc2c(N)nc3cc(OCCNC(=O)OC(C)(C)C)ccc3c2n1CC1CCOCC1` [Example 551, tert-Butyl 2-{[4-amino-2-ethyl-1-(tetrahydro-2H-pyran-4-ylmethyl)-1H-imidazo[4,5-c]quinolin-7-yl]oxy}ethylcarbamate] yielded a melting point of 200 to 201 °C.

With `CCCn1c(COCC)nc2c(N)nc3ccc(OCCNS(C)(=O)=O)cc3c21` [Example 3, N-[2-(4-Amino-2-ethoxymethyl-1-propyl-1H-imidazo[4,5-c]quinolin-8-yloxy)ethyl]methanesulfonamide] the melting point was 178 to 179.5 °C and 182 to 184.5 °C.
For `CCc1nc2c(N)nc3cc(OCCN)ccc3c2n1CC1CCOCC1` [Example 650, 7-(2-Aminoethoxy)-2-ethyl-1-(tetrahydro-2H-pyran-4-ylmethyl)-1H-imidazo[4,5-c]quinolin-4-amine], the melting point was 238 °C (dec.).
In the case of `CCc1nc2c(N)nc3cc(OCC(=O)C(C)(C)C)ccc3c2n1CCOc1ccccc1` [Example 52, 1-[4-Amino-2-ethyl-1-(2-phenoxyethyl)-1H-imidazo[4,5-c]quinolin-7-yloxy]-3,3-dimethylbutan-2-one], the melting point is reported as 238 to 239 °C (dec.).
For `CCCc1nc2c(N)nc3cc(OCC4CCCCO4)ccc3c2n1CC(C)C` (stereo not shown) [Example 54, 1-(2-Methylpropyl)-2-propyl-7-(tetrahydropyran-2-ylmethoxy)-1H-imidazo[4,5-c]quinolin-4-amine], the melting point was 126 °C (dec.).
